Measured values reported in US8389563B2, “C-substituted diindolylmethane compositions and methods for the treatment of multiple cancers” (The Texas A&M University System, priority 2000, dated 2013).
“Also recorded” adds a separate entry of the source. Like-named read-outs stand apart in the source and are kept apart here. Marks after values point to notes of the source that are not given here. One block for each molecule: values may come before it.

Experiments:
[1] = system: TCCSUP human bladder cancer cell line; assay: Cell proliferation of TCCSUP bladder cancer cells; type: cell-based; conditions: for Proliferation of TCCSUP human bladder cancer cells: 0.1-10 μM, cell growth over 4-10 days; for Lowest concentration at which TCCSUP cells were inhibited: lowest concentration tested
Description: (§1) Initial studies used TCCSUP and J82 human bladder cancer cell lines that were maintained in RPMI culture media supplemented with 10% fetal bovine serum. Cell proliferation studies were carried out in multi-well plates, and compounds (in DMSO, 0.1% vol./vol.) were added and cell growth was determined over a period of 4 10 days. The growth inhibitory properties of DIM and related analogs were determined using the following prototypical compounds: DIM, 5,5′-dimethylDIM (5-Me-DIM), 2,2′-dimethylDIM (2-Me-DIM), and 5,5′-dichloroDIM (5-Cl-DIM) at concentrations from 0.1 10 μM.
as §1, with “Initial studies on the possible protective role for DIM compounds in bladder cancer used TCCSUP” for “Initial studies used TCCSUP”

[2] = system: J82 human bladder cancer cell line; assay: Cell proliferation of J82 bladder cancer cells; type: cell-based; conditions: 0.1-10 μM, cell growth over 4-10 days
Description: as §1
as §1, with “Initial studies on the possible protective role for DIM compounds in bladder cancer used TCCSUP” for “Initial studies used TCCSUP”

[3] = molecular target: T1, Ah receptor (Rattus norvegicus, UniProt P41738); assay: Ah receptor competitive binding
T1 sequence (P41738 10-853): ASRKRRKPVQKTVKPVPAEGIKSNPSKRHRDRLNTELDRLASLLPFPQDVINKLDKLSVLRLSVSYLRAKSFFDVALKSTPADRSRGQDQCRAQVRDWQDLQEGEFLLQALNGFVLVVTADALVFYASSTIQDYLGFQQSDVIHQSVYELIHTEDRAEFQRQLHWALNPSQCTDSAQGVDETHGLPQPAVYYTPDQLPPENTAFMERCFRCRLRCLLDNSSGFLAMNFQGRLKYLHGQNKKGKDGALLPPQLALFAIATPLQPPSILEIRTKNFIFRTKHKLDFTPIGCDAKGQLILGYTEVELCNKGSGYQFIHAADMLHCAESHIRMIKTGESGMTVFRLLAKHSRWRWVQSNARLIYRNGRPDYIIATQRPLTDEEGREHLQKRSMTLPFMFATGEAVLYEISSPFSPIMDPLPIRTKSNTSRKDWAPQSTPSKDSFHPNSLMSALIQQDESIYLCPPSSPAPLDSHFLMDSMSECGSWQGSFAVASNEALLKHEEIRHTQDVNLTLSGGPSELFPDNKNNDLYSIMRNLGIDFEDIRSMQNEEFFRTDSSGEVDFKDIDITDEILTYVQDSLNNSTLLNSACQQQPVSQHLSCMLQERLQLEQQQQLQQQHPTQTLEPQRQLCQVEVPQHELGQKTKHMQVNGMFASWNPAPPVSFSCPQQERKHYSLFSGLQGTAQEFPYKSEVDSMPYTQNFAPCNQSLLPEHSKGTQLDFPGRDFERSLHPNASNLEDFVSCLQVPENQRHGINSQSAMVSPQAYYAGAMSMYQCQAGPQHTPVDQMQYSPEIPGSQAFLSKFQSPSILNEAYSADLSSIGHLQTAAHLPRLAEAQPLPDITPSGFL

[4] = system: DMBA-induced mammary tumor; assay: DMBA-induced rat mammary tumor model; type: in vivo, female Sprague-Dawley rats; conditions: 1.0 mg/kg every 2 days; for Mammary tumor growth in DMBA-induced rats: tumor volumes over 21 days
[5] = system: T47D human breast cancer cells; assay: Estrogenic and antiestrogenic activity in T47D cells (proliferation, alone or with 1 nM E2); type: cell-based; conditions: in combination with 1 nM E2
Text: In a separate study, it was also shown that the same compounds and other C-substituted DIMs were also antiestrogenic in T47D cells, and these include the C-p-phenol and C-p-anisole compounds in which R1═CH3 (methyl) (i.e., NMe-CPh-OHDIM and NMe-CPh-MeODIM, respectively) (FIG. 3).

[6] = system: MCF-7 human breast cancer cells; assay: Proliferation of MCF-7 breast cancer cells, alone or with 1 nM E2; type: cell-based; conditions: for E2-induced MCF-7 cell proliferation: co-treated with 1 nM E2; for Growth of MCF-7 cells, compound alone: up to 10 μM
[7] = system: HT-29 human colon cancer cells; assay: Cell proliferation and apoptosis of HT-29 colon cancer cells; type: cell-based
Description: (§2) Studies with HT-29 human colon cancer cells also indicate that DIM and related analogs protect against colon cancer. HT-29 cells were grown in DMEM and serum and treated with 25 μM DIM and 4,4′-dichloroDIM. After 72 hr, there was a 73 and 92% decrease in cell proliferation, respectively, and these antiproliferative effects could be observed with cell concentrations as low as 10 μM.
as §2, with “Preliminary studies” for “Studies”, “hours,” for “hr,”, “with” for “with cell”

[8] = system: mitogen-activated protein kinase (MAPKK); assay: MAPKK-induced pSRE reporter activity in MCF-7 cells; type: cell-based; conditions: 1 or 5 μM, MCF-7 cells transfected with pMAPKK and pSRE
Text: Therefore, we have been investigating the inhibitory effects of DIMs on kinase activities and our initial studies have examined inhibition of mitogen-activated protein kinase (MAPKK) which regulates expression of multiple genes involved in cell proliferation. MCF-7 cells are transfected with a constitutively active MAPKK expression plasmid (pMAPKK), and induction of activity is monitored through activation of the construct pSRE which contains a MAPKK-inducible serum response element (SRE) from the cfos protooncogene (Duan et al., “Estrogen receptor-mediated activation of the serum response element in MCF-7 cells through MAPK-dependent phosphorylation of Elk-1” J. Biol. Chem. 276:11590 11598, 2001).

[9] = Body/organ weights, EROD and histopathology in the DMBA-induced rat study; type: in vivo, female Sprague-Dawley rats; conditions: 1.0 mg/kg every 2 days

Compound: Cc1[nH]c2ccccc2c1Cc1c(C)[nH]c2ccccc12 [2,2′-dimethylDIM, 2,2′-dimethyl-diindolylmethane]
- Proliferation of TCCSUP human bladder cancer cells [1]: significantly inhibited
- Lowest concentration at which TCCSUP cells were inhibited [1]: 0.1 µM
- Proliferation of J82 human bladder cancer cells [2]: significantly inhibited

Compound: Cn1cc(C(c2ccc(-c3ccccc3)cc2)c2cn(C)c3ccccc23)c2ccccc21 [NMe-C-BiphDIM]
- IC50 ([3]; read-out: IC50 competitive binding values, Ah receptor): 1.8 nM
- Mammary tumor growth in DMBA-induced rats [4]: Illustrates inhibition of DMBA-induced mammary tumor growth in female Sprague-

Compound: Clc1ccc2[nH]cc(Cc3c[nH]c4ccc(Cl)cc34)c2c1 [5,5′-dichloroDIM, 5,5′-dichloro-diindolylmethane]
- Proliferation of TCCSUP human bladder cancer cells [1]: significantly inhibited
- Lowest concentration at which TCCSUP cells were inhibited [1]: 0.1 µM
- Proliferation of J82 human bladder cancer cells [2]: significantly inhibited

- IC50 [3]: 0.55 nM
Compound: Cn1cc(C(c2ccc(Cl)cc2)c2cn(C)c3ccccc23)c2ccccc21

Compound: Cn1cc(C(c2ccc(O)cc2)c2cn(C)c3ccccc23)c2ccccc21 [NMe-C-PhOHDIM]
- Antiestrogenic activity in T47D cells [5]: antiestrogenic
- Mammary tumor growth in DMBA-induced rats [4]: Illustrates inhibition of DMBA-induced mammary tumor growth in female Sprague-

- IC50 [3]: 11 nM
Compound: CC(c1c[nH]c2ccccc12)c1c[nH]c2ccccc12 [C-methylDIM]
- E2-induced MCF-7 cell proliferation [6]: hormone-induced proliferative response was inhibited
- E2-induced MCF-7 cell proliferation ([6]; listed as C—CH3): significant inhibition of E2-induced cell proliferation
- Growth of MCF-7 cells, compound alone [6]: did not induce breast cancer cell proliferation
- Growth of MCF-7 cells, compound alone ([6]; listed as C—CH3): do not affect growth
- Antiestrogenic activity in T47D cells [5]: antiestrogenic

Compound: Cc1ccc(C(c2cn(C)c3ccccc23)c2cn(C)c3ccccc23)cc1 [NMe-C-PhMeDIM]
- Mammary tumor growth in DMBA-induced rats [4]: Illustrates inhibition of DMBA-induced mammary tumor growth in female Sprague-

Compound: FC(F)(F)c1ccc(C(c2c[nH]c3ccccc23)c2c[nH]c3ccccc23)cc1 [C—Ph—CF3DIM]
- Mammary tumor growth in DMBA-induced rats [4]: Illustrates inhibition of DMBA-induced mammary tumor growth in female and C—Ph—CF3DIM

Compound: Clc1cccc2[nH]cc(Cc3c[nH]c4cccc(Cl)c34)c12 [4,4′-dichloroDIM]
- Lowest concentration at which antiproliferative effects could be observed in HT-29 cells [7]: 10 µM
- Programmed cell death accompanying growth inhibition in HT-29 cells [7]: programmed cell death, or apoptosis; also recorded: programmed cell death or apoptosis
- Decrease in HT-29 cell proliferation ([7]; 25 μM, after 72 hr): 92%

Compound: Cc1ccc2[nH]cc(Cc3c[nH]c4ccc(C)cc34)c2c1 [5,5′-dimethylDIM, 5,5′-dimethyl-diindolylmethane]
- Proliferation of TCCSUP human bladder cancer cells [1]: significantly inhibited
- Lowest concentration at which TCCSUP cells were inhibited [1]: 0.1 µM
- MAPKK-induced (pSRE) activity [8]: inhibited MAPKK-induced activity
- Proliferation of J82 human bladder cancer cells [2]: significantly inhibited

Compound: Cn1cc(C(c2ccccc2)c2cn(C)c3ccccc23)c2ccccc21 [NMe-C-PhDIM]
- Mammary tumor growth in DMBA-induced rats [4]: Illustrates inhibition of DMBA-induced mammary tumor growth in female Sprague-

- IC50 [3]: 98 nM
- EROD [9]: 309 ± 102 pmol/mg/min
Compound: c1ccc(C(c2c[nH]c3ccccc23)c2c[nH]c3ccccc23)cc1 [C-PhDIM]
- E2-induced MCF-7 cell proliferation ([6]; listed as C-phenylDIM): hormone-induced proliferative response was inhibited
- E2-induced MCF-7 cell proliferation ([6]; listed as C—C6H5): significant inhibition of E2-induced cell proliferation
- Growth of MCF-7 cells, compound alone ([6]; listed as C-phenylDIM): did not induce breast cancer cell proliferation
- Growth of MCF-7 cells, compound alone ([6]; listed as C—C6H5): do not affect growth
- Changes in body/organ weights or tissue histopathology [9]: not accompanied by changes in body/organ weights or altered tissue histopathology
- Heart [9]: 0.38 +/− 0.03 % body weight
- Kidney [9]: 0.33 +/− 0.01 % body weight
- Liver [9]: 3.2 +/− 0.1 % body weight
- Spleen [9]: 0.33 +/− 0.05 % body weight
- Uterus [9]: 0.19 +/− 0.02 % body weight
- Changes in body/organ weights or tissue histopathology ([9]; listed as C-phenylDIM): not accompanied by changes in body/organ weights on altered tissue histopathology
- Antiestrogenic activity in T47D cells [5]: antiestrogenic
- Tumor volume [4]: 1025 +/− 245* mm3
- Tumor weight [4]: 1.40 +/− 0.4* g
- Mammary tumor growth in DMBA-induced rats [4]: potent inhibition of mammary tumor growth
- Mammary tumor growth in DMBA-induced rats ([4]; listed as C-phenylDIM): potent inhibition of mammary tumor growth
- Mammary tumor growth in DMBA-induced rats ([4]; listed as C—PhDIM): Illustrates inhibition of DMBA-induced mammary tumor growth in female Sprague-

Compound: Cc1ccc2c(Cc3c[nH]c4cc(C)ccc34)c[nH]c2c1 [6,6′-dimethlyDIM]
- MAPKK-induced (pSRE) activity [8]: inhibited MAPKK-induced activity

Compound: COc1ccc(C(c2cn(C)c3ccccc23)c2cn(C)c3ccccc23)cc1 [NMe-C-Ph-MeODIM]
- Antiestrogenic activity in T47D cells [5]: antiestrogenic
- Mammary tumor growth in DMBA-induced rats [4]: Illustrates inhibition of DMBA-induced mammary tumor growth in female Sprague-

Compound: Cn1cc(C(c2ccc(C(F)(F)F)cc2)c2cn(C)c3ccccc23)c2ccccc21 [NMe-C-Ph-CF3DIM]
- Mammary tumor growth in DMBA-induced rats [4]: Illustrates inhibition of DMBA-induced mammary tumor growth in female Sprague-
